Source: PubChem BioAssay AID330 (DTP/NCI, 2004)
“And” between values parts separate entries of the source, which are not always exact repeats. Identical values can stand only once. Inconclusive results and toxic doses are left out. How the source made its calls: active means survival T/C of 150% or more; inactive means T/C below 125% in these data.

Test system: P388 leukemia ip, CD2F1 mice, survival T/C
Assay: NCI In Vivo Anticancer Drug Screen. Data for tumor model P388 Leukemia (intraperitoneal) in CD2F1 (CDF1) mice
Conditions: endpoint: median survival time, higher = longer survival
Summary of the method: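 Mice carrying the transplanted tumor received test compound or vehicle. Survival was recorded in each group, and the value is the treated-group measurement divided by that of the vehicle-treated control group.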

[1] = dose: 50.0 mg/kg/injection, schedule: Q01DX009 (ip), vehicle: suspension in saline
[2] = dose: 100.0 mg/kg/injection, schedule: Q01DX009 (ip), vehicle: suspension in saline
[3] = dose: 100.0 mg/kg/injection, schedule: Q04DX003 (ip), vehicle: saline with Tween-80
[4] = dose: 200.0 mg/kg/injection, schedule: Q01DX009 (ip), vehicle: suspension in saline
[5] = dose: 200.0 mg/kg/injection, schedule: Q04DX003 (ip), vehicle: saline with Tween-80
[6] = dose: 400.0 mg/kg/injection, schedule: Q04DX003 (ip), vehicle: saline with Tween-80
[7] = dose: 50.0 mg/kg/injection, schedule: Q01DX009 (ip), vehicle: saline
[8] = dose: 100.0 mg/kg/injection, schedule: Q01DX009 (ip), vehicle: saline
[9] = dose: 200.0 mg/kg/injection, schedule: Q01DX009 (ip), vehicle: saline
[10] = dose: 60.0 mg/kg/injection, schedule: Q01DX005 (ip), vehicle: Klucel (hydroxypropylcellulose) (HPC)
[11] = dose: 120.0 mg/kg/injection, schedule: Q01DX005 (ip), vehicle: Klucel (hydroxypropylcellulose) (HPC)
[12] = dose: 100.0 mg/kg/injection, schedule: Q04DX003 (ip), vehicle: Klucel (hydroxypropylcellulose) (HPC)
[13] = dose: 25.0 mg/kg/injection, schedule: Q01DX009 (ip), vehicle: saline
[14] = dose: 50.0 mg/kg/injection, schedule: Q01DX005 (ip), vehicle: Klucel (hydroxypropylcellulose) (HPC)

Measured: T/C

c1ccc2[nH]cnc2c1
inactive: dose: 20.0 mg/kg/injection, schedule: Q04DX003 (ip), vehicle: other 100 % of control | dose: 40.0 mg/kg/injection, schedule: Q04DX003 (ip), vehicle: other 99 % of control | dose: 40.0 mg/kg/injection, schedule: Q04DX003 (oral), vehicle: other 100 % of control | [1] 98 % of control | dose: 80.0 mg/kg/injection, schedule: Q04DX003 (ip), vehicle: other 95 % of control | [2] 90 % of control | [3] 100 % of control | dose: 160.0 mg/kg/injection, schedule: Q04DX003 (ip), vehicle: other 100 % of control | dose: 160.0 mg/kg/injection, schedule: Q04DX003 (oral), vehicle: other 104 % of control | [4] 106 % of control | [5] 100 % of control | dose: 320.0 mg/kg/injection, schedule: Q04DX003 (ip), vehicle: other 100 % of control | [6] 90 % of control

CNc1ncc2c(n1)N(C)C(=O)/C(=C\C(=O)OC)N2
inactive: dose: 40.0 mg/kg/injection, schedule: Q01DX009 (ip), vehicle: saline with Tween-80 101 % of control | dose: 80.0 mg/kg/injection, schedule: Q01DX009 (ip), vehicle: saline with Tween-80 93 % of control | dose: 160.0 mg/kg/injection, schedule: Q01DX009 (ip), vehicle: saline with Tween-80 99 % of control

CN(C)CCCNC(=O)c1ccc2c(c1)C(=O)c1ccccc1C2=O
inactive: dose: 100.0 mg/kg/injection, schedule: Q04DX003 (ip), vehicle: water 107 % of control | dose: 200.0 mg/kg/injection, schedule: Q04DX003 (ip), vehicle: water 115 % of control

CCOC(=O)N1CC2C=CC1C(C(C)=O)C2 (stereo not drawn)
inactive: [7] 110 % of control | [8] 109 % of control | [9] 109 % of control

COC(=O)c1cc2c(C(=O)OC)cc1CSCc1cccc(c1)CSC2
inactive: dose: 12.5 mg/kg/injection, schedule: Q01DX009 (ip), vehicle: suspension in saline 90 % of control | dose: 25.0 mg/kg/injection, schedule: Q01DX009 (ip), vehicle: suspension in saline 87 % of control | [1] 97 % of control

Nc1nnc(-c2cc([N+](=O)[O-])cc([N+](=O)[O-])c2)o1
inactive: dose: 60.0 mg/kg/injection, schedule: Q01DX005 (ip), vehicle: saline with Tween-80 108 % of control | dose: 120.0 mg/kg/injection, schedule: Q01DX005 (ip), vehicle: saline with Tween-80 94 % of control | dose: 240.0 mg/kg/injection, schedule: Q01DX005 (ip), vehicle: saline with Tween-80 100 % of control

Cc1ccc(NC(=S)SCc2ccc(Cl)cc2)cc1Br
inactive: dose: 50.0 mg/kg/injection, schedule: Q01DX009 (ip), vehicle: Klucel (hydroxypropylcellulose) (HPC) 105 % of control and 123 % of control | [1] 109 % of control | dose: 100.0 mg/kg/injection, schedule: Q01DX009 (ip), vehicle: Klucel (hydroxypropylcellulose) (HPC) 114 % of control | [2] 104 % of control | dose: 200.0 mg/kg/injection, schedule: Q01DX009 (ip), vehicle: Klucel (hydroxypropylcellulose) (HPC) 121 % of control and 122 % of control | [4] 90 % of control

CC(C)COC(=O)CN(CC(=O)OCC(C)C)c1ccccc1
inactive: [3] 109 % of control | [5] 104 % of control | [6] 113 % of control

O=C1NC(=O)C2NC(O)=C(O)NC2N1 (stereo not drawn)
inactive: dose: 12.5 mg/kg/injection, schedule: Q01DX001 (ip), vehicle: saline with Tween-80 102 % of control | dose: 25.0 mg/kg/injection, schedule: Q01DX001 (ip), vehicle: saline with Tween-80 108 % of control

COc1ccc2c(c1)OC(C)(C)c1c-2n(C)c2c(F)cccc2c1=O
inactive: [10] 100 % of control | [11] 101 % of control | dose: 240.0 mg/kg/injection, schedule: Q01DX005 (ip), vehicle: Klucel (hydroxypropylcellulose) (HPC) 101 % of control

CCCCCCCCCCCCCCCCCCON
inactive: [12] 97 % of control | dose: 200.0 mg/kg/injection, schedule: Q04DX003 (ip), vehicle: Klucel (hydroxypropylcellulose) (HPC) 92 % of control | dose: 400.0 mg/kg/injection, schedule: Q04DX003 (ip), vehicle: Klucel (hydroxypropylcellulose) (HPC) 94 % of control

CC1=CC(OC(C)C)OC1=O (stereo not drawn)
inactive: dose: 50.0 mg/kg/injection, schedule: Q01DX005 (ip), vehicle: saline 108 % of control | dose: 100.0 mg/kg/injection, schedule: Q01DX005 (ip), vehicle: saline 110 % of control | dose: 200.0 mg/kg/injection, schedule: Q01DX005 (ip), vehicle: saline 110 % of control

COC(=O)C1CCCCC1C(=O)OC (stereo not drawn)
inactive: dose: 12.5 mg/kg/injection, schedule: Q01DX009 (ip), vehicle: saline 108 % of control | [13] 104 % of control and 111 % of control | [7] 104 % of control | [8] 100 % of control and 101 % of control (2×) | [9] 110 % of control

CN(C)CCn1c2nc(=O)[nH]c(=O)c-2nc2ccccc21
inactive: dose: 6.25 mg/kg/injection, schedule: Q01DX005 (ip), vehicle: Klucel (hydroxypropylcellulose) (HPC) 93 % of control | dose: 12.5 mg/kg/injection, schedule: Q01DX005 (ip), vehicle: Klucel (hydroxypropylcellulose) (HPC) 100 % of control | dose: 25.0 mg/kg/injection, schedule: Q01DX005 (ip), vehicle: Klucel (hydroxypropylcellulose) (HPC) 101 % of control | [14] 98 % of control

[O]=[Ge]=[O]
inactive: [7] 111 % of control | [8] 104 % of control | [9] 111 % of control

CC(C)(C)n1nc(C2CC2)cc1NC(=O)Nc1ccccc1
inactive: dose: 30.0 mg/kg/injection, schedule: Q01DX005 (ip), vehicle: Klucel (hydroxypropylcellulose) (HPC) 99 % of control | [10] 98 % of control | [11] 98 % of control

COc1c(OP2(=S)OCC(C)(C)CO2)cnn(C2CCCCC2)c1=O
inactive: dose: 50.0 mg/kg/injection, schedule: Q01DX005 (ip), vehicle: saline with Tween-80 89 % of control | dose: 100.0 mg/kg/injection, schedule: Q01DX005 (ip), vehicle: saline with Tween-80 88 % of control

COc1cc(C2c3cc4c(cc3C(OC3CCCCO3)C3COC(=O)C23)OCO4)cc(OC)c1OC (stereo not drawn)
inactive: dose: 3.12 mg/kg/injection, schedule: Q01DX005 (ip), vehicle: Klucel (hydroxypropylcellulose) (HPC) 117 % of control

O=[N+]([O-])c1ccc(/C=C/Sc2ccccc2)o1
inactive: [1] 99 % of control | [2] 98 % of control

OC1(c2ccc(CCc3ccc(C4(O)C(c5ccccc5)=C(c5ccccc5)C(c5ccccc5)=C4c4ccccc4)cc3)cc2)C(c2ccccc2)=C(c2ccccc2)C(c2ccccc2)=C1c1ccccc1
inactive: dose: 6.25 mg/kg/injection, schedule: Q01DX009 (ip), vehicle: saline with Tween-80 100 % of control | dose: 12.5 mg/kg/injection, schedule: Q01DX009 (ip), vehicle: saline with Tween-80 97 % of control | dose: 25.0 mg/kg/injection, schedule: Q01DX009 (ip), vehicle: saline with Tween-80 93 % of control | dose: 200.0 mg/kg/injection, schedule: Q01DX001 (ip), vehicle: Klucel (hydroxypropylcellulose) (HPC) 89 % of control

CCCCC(NC(=O)C(CCCC)NC(=O)OCc1ccccc1)C(=O)O (stereo not drawn)
inactive: [14] 108 % of control | dose: 100.0 mg/kg/injection, schedule: Q01DX005 (ip), vehicle: Klucel (hydroxypropylcellulose) (HPC) 93 % of control | dose: 200.0 mg/kg/injection, schedule: Q01DX005 (ip), vehicle: Klucel (hydroxypropylcellulose) (HPC) 95 % of control

CC1=CC(=O)C=CC1=Nc1ccc(N(CCCl)CCCl)cc1
inactive: dose: 50.0 mg/kg/injection, schedule: Q04DX003 (ip), vehicle: Klucel (hydroxypropylcellulose) (HPC) 103 % of control | [12] 102 % of control

CC1COS(=O)(=O)C1 (stereo not drawn)
inactive: [13] 102 % of control | [7] 101 % of control
